Key:
[1] = system: C57BL/6J mice fed with a high-fat diet; test: Anti-obesity effect (body weight) on dietary-induced obesity mouse model; assay type: in vivo; settings: 12 weeks; for body weight gain inhibited, with respect to the body weight gain of the control group attributed to the high-calorie diet: once a day into the stomach, 84th day
Description: The 5H4PB obtained in Example 6 administered to mice fed with a high-fat diet to verify its anti-obesity effect. Five-week-old male C57BL/6J mice (supplied by Charles River Laboratories Japan, Inc.) were individually raised (one per cage) under environmental conditions involving a temperature of 20 to 26° C., a humidity of 35 to 75%, and 12-hour illumination (7:00 to 19:00). After acclimatization for approximately 1 week, the mice were divided into 6 groups each involving 6 to 8 individuals. Of the test groups, a normal group was fed with a normal solid diet CRF1 (a product of Oriental Yeast Co., Ltd., 3.57 kcal/g) during the test period, and a control group and drug administration groups were fed with a high-calorie solid diet D12492 (a product of Research Diets, Inc., 5.24 kcal/g) during the test period. The diets were freely taken, and water was also freely taken from water supply bottles.
The test substance 5H4PB (produced in Example 6) or a positive control substance rosiglitzaone (a product of Wako Pure Chemical Industries, Ltd.) was administered once a day for 12 weeks at the predetermined dose shown in Table 2 to the mice in each drug administration group. The rosiglitazone is a selective PPARγ ligand and is a substance having the effect of lowering the concentrations of glucose, fatty acid, and insulin in blood through binding to PPARγ. For the administration, body weight measurement was carried out once a week to calculate the dose to each individual. 5H4PB and rosiglitazone were each suspended in a 0.5 w/v % aqueous methylcellulose solution and diluted with the same aqueous solution to adjust the administration dose to 10 mL/kg. Then, each substance was forced-administered into the stomach using a syringe and a flexible stomach tube. […]
From the start of the test (administration), the body weight of each individual was measured at a frequency of once a week, and the average body weight of each test group was determined. […]

[2] = system: C57BL/6J mice fed with a high-fat diet; test: Insulin in blood of dietary-induced obesity mouse model; assay type: in vivo; settings: administration groups, particularly the low-dose group; 85 days; FIG. 16
Description: For each individual of the male C57BL/6J mice after a lapse of 85 days into the test of Example 9, blood was collected from the abdominal vena cava using a syringe supplemented with heparin under anesthesia with 2% isoflurane. The amount of blood collected was set to approximately 0.8 mL. The collected blood was stored under ice cooling until centrifugation. After centrifugation (conditions: 4° C., approximately 1800×g, 10 min), the upper layer was recovered to obtain plasma. The plasma was dispensed to sampling tubes and cryopreserved until measurement. The mouse adiponectin concentration contained in the mouse plasma obtained from each individual was measured using a commercially available ELISA kit, and the average adiponectin concentration of each test group was determined.
In Example 10, the amount of […] insulin contained in the mouse plasma obtained from each individual was measured using a commercially available ELISA kit, and the average insulin concentration of each test group was determined. The ordinate of the drawing depicts the insulin concentration (ng/mL) in the mouse plasma. The test group indicated by each bar of the bar graph is the same as in FIG. 15 mentioned above.

Compound: O=C1C=C(c2ccccc2)C(O)O1 (stereo not shown) [5H4PB, 5-hydroxy-4-phenylbutenolide]
- anti-obesity effect (overall) ([1]; 0.037 μg/kg/day and 0.01 mg/kg/day): high anti-obesity effect
- body weight gain inhibited, with respect to the body weight gain of the control group attributed to the high-calorie diet ([1]; 0.037 μg/kg/day): 25.8%
- body weight gain inhibited, with respect to the body weight gain of the control group attributed to the high-calorie diet ([1]; 0.01 mg/kg/day): 27.8%
- insulin concentration in mouse plasma compared with the control group [2]: inhibition of a rise in insulin concentration was confirmed

— patent publication US9943501B2 (KOJUN JAPAN CO., LTD., priority 2014, dated 2018)
